{"source": "patent US20220016080A1", "about": "“COMPOUNDS THAT SELECTIVELY AND EFFECTIVELY INHIBIT HAKAI-MEDIATED UBIQUITINATION, AS ANTI-CANCER DRUGS” (FUNDACIÓN PROFESOR NOVOA SANTOS, priority 2018, published 2022)", "key": {"[1]": {"biological_target": "T1, E3 ubiquitin-ligase Hakai (Mus musculus, UniProt Q9JIY2)", "T1 construct": "expressed in transfected cells; host or cells: HEK293T (293) cells, co-transfected with v-Src and HA-ubiquitin, and in A3 also with myc-E-cadherin", "T1 sequence (Q9JIY2 1-491)": "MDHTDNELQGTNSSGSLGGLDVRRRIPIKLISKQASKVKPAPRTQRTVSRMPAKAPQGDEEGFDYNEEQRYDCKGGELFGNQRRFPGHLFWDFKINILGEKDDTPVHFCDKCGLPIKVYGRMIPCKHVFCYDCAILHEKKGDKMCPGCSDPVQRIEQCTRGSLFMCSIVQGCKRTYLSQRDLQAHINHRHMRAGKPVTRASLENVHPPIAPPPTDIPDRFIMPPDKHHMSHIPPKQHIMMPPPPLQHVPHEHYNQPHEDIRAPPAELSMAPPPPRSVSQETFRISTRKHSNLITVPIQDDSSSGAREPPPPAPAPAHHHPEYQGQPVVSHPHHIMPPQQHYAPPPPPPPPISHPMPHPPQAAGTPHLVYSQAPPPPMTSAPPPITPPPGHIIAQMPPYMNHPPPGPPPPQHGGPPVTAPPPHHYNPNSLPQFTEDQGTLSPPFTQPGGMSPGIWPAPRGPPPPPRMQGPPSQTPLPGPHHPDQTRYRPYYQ", "assay": "Hakai-dependent ubiquitination assay in 293T cells transfected with Flag-Hakai, v-Src and HA-ubiquitin", "type": "cell-based", "settings": "293T cells transfected with Src, treated 36 h", "description": "For ubiquitination assays, 750.000 HEK293T cells were seeded in 6-well cell culture plates and after 24 h were transfected with 0.25 μg Src, 0.75 μg Flag-Hakai, and 0.5 μg HA-ubiquitin with Lipofectamin 2000 (Invitrogen, UK). Six hours after transfection cells were treated with indicated concentrations of Hakin-1, Hakin-5 or the rest of the analogues tested for 36 h. Whole cell extracts were obtained in lysis buffer (20 mM Tris-HCl pH 7.5, 150 mM NaCl and 1% Triton X-100) containing 10 μg/ml leupeptin, 10 μg/ml aprotinin and 1 mM phenylmethanesulphonyl fluoride (PMSF), supplemented with 10 mM N-ethylmaleimide. Cells were harvested and subjected to western blotting using anti-HA antibody to detect ubiquitination."}, "LoVo cells": {"test_system": "LoVo cells", "assay": "Western blotting of EMT markers, LoVo", "type": "cell-based", "settings": "48 h", "description": "For western blot analysis, cells were treated with the indicated inhibitors for 48 h and the whole cell extracts were obtained as described previously. Twenty micrograms of lysates were resolved on a 10% polyacrilamide SDS-PAGE followed by western blot analysis performed as previously described. For immunofluorescence assays cells were grown for 24 h on glass coverslips and treated with the indicated inhibitors for 48 h. Cells were fixed with 4% PFA for 15 min, permeabilized with 0.5% […] and incubated with E-cadherin antibody for 2 h. Coverslips were incubated with fluorescein-tagged secondary antibody (Dakopatts, Sweden) for […]. Finally coverslips were mounted with ProLong Gold antifade reagent (LifeTech, UK) and images were taken in epifluorescence microscope (Olympus) using 40× objective."}, "[2]": {"test_system": "Hakai-transformed MDCK cells", "assay": "Phase-contrast cell phenotype, Hakai-MDCK", "type": "cell-based", "description": "MDCK, HEK293T, HepG2, MCF7 and ACHN cells were cultured in Dulbecco's Modified Eagles Medium (DMEM). MDCK stably expressing Hakai cells (Hakai-MDCK) were previously reported and were growth in DMEM with G418 (800 μg/ml). […] LoVo and PC-3 cells were cultured in F-12K Medium (Kaighn's Modification of Ham's F-12 Medium) and HT-29 cells in McCoy's 5a Medium Modified. 5637 cells were cultured in RPMI medium. All culture media were supplemented with 1% penicillin/streptomycin and 10% of heat-inactivated fetal bovine serum (FBS) at 37° C. in a humidified incubator with 5% CO2. Cells were monthly tested for mycoplasma contamination and used only for 1-3 months after defrosted. LoVo and HT29 cells were authenticated with the StemElite ID system (Promega). For phase-contrast images, culture cells were photographed with a Nikon Eclipse-TI microscope."}, "breast cancer MCF7 cell": {"test_system": "breast cancer MCF7 cell", "assay": "BrdU proliferation assay, MCF7", "type": "cell-based, human", "settings": "48 h", "description": "(§1) For BrdU assays, 1×10^4 of indicated cells were plated per well into a 96-well plate. After 24 h, cells were treated with the indicated inhibitors for 48 h. Three independent experiments were plated with six replicates per each condition. Cells were treated with […] BrdU for 2 h. BrdU incorporation into newly synthesized DNA was measured using a cell proliferation colorimetric immunoassay kit according to the manufacturer's instructions (Roche, Switzerland). Results are expressed as mean±S.D. Results are represented as percentage of positive cells (mean±S.D) of three independent experiments."}, "[3]": {"test_system": "Hakai-MDCK cell lines (clone 4 and clone 11)", "assay": "MTT cell viability assay, Hakai-MDCK", "type": "cell-based", "settings": "both clones of Hakai-MDCK compared to MDCK; 72 h", "description": "(§2) For cytotoxicity assays, 1×10^4 cells were seeded per well into a 96-well plate. After 24 h cells were treated with the indicated inhibitors for 72 h and a MTT colorimetric cell viability assay was performed following manufacturer's instructions (Sigma Aldrich, St Louis, Mo.). Absorbance was measured at 570 and 630 nm using a Multiskan Plus Reader (Nanoquant Infinite M200 Tecan Trading AG, Switzerland). Dose-response curves were designed with Graph Pad Prism Software and the half-maximal inhibitory concentration (IC50) values were calculated. Represented data are the mean±SEM of at least three independent experiments with six replicates per condition."}, "[4]": {"test_system": "normal epithelial MDCK cell line", "assay": "MTT cell viability assay, MDCK", "type": "cell-based", "settings": "normal epithelial MDCK compared to Hakai-MDCK; 72 h", "description": "as §2"}, "renal cancer ACHN cells": {"test_system": "renal cancer ACHN cells", "assay": "BrdU proliferation assay, ACHN", "type": "cell-based, human", "settings": "48 h", "description": "as §1"}, "[5]": {"biological_target": "T1, E3 ubiquitin-ligase Hakai", "assay": "Hakai-dependent ubiquitination of the E-cadherin complex (immunoprecipitation, 293T cells)", "type": "cell-based", "settings": "293T cells transfected with Flag-Hakai, myc-E-cadherin, v-Src, HA-ubiquitin; IP with anti-E-cadherin", "description": "For immunoprecipitation experiments, 293 cells were transfected with 3 μg Src, 4 μg Flag-Hakai, and 2 μg HA-ubiquitin and 3 μg E-cadherin with Lipofectamin 2000 (Invitrogen, UK). 24 h after transfection, cells were lysed for 20 min in 1 ml of 1% Triton X-100 lysis buffer (20 mM Tris-HCl pH 7.5, 150 mM NaCl and 1% Triton X-100) containing 10 μg/ml leupeptin, 10 μg/ml aprotinin and 1 mM phenylmethanesulphonyl fluoride (PMSF), supplemented with 10 mM N-ethylmaleimide and 2.5 mM sodium orthovanadate. After centrifugation at 18.000 g for 10 min, the supernatants were immunoprecipitated for 2 h with 2 μg of anti-E-cadherin antibody bound to 60 μl of protein G PLUS-Agarose beads, followed by SDS-polyacrylamide gel electrophoresis (PAGE) and western blotting with the indicated antibodies as previously reported."}}}
{"smiles": "O=C(O)c1ccc(-n2nnnc2SCC(=O)c2ccc([N+](=O)[O-])cc2)cc1", "note": "[Hakin-1, 4-(5-{[2-(4-nitrophenyl)-2-oxoethyl]thiol}-1H-tetrazol-1-yl)benzoic acid]", "values": [{"measurement": "Hakai protein levels", "setting": "[1]", "result": "no effect was seen"}, {"measurement": "ubiquitination mediated by Hakai (western blotting, anti-HA)", "setting": "[1]; DMSO as control", "result": "strongly reduces the ubiquitination mediated by Hakai in a doses dependent-manner"}, {"measurement": "EMT markers (western blotting)", "setting": "LoVo cells", "result": "confirmed these results"}, {"measurement": "mesenchymal phenotype (phase contrast)", "setting": "[2]", "result": "induction of an epithelial phenotype"}, {"measurement": "cell proliferation (BrdU)", "setting": "breast cancer MCF7 cell", "result": "inhibits cell proliferation"}, {"measurement": "sensitivity to treatment (cell viability, MTT)", "setting": "[3]", "result": "more sensitive"}, {"measurement": "sensitivity to treatment (cell viability, MTT)", "setting": "[4]", "result": "more resistant"}, {"measurement": "cell proliferation (BrdU)", "setting": "renal cancer ACHN cells", "result": "inhibits cell proliferation"}, {"measurement": "Hakai-dependent ubiquitination of E-cadherin complex", "setting": "[5]", "result": "reduction of Hakai-dependent ubiquitination of E-cadherin complex"}]}
